This experiment has as its target SARS-CoV-2 Mac1 (Severe acute respiratory syndrome coronavirus 2, UniProt P0DTD1). Kind of experiment: biochemical. Particulars: for inhibition at 100 µM: read-out: %inhibition; for %inhibition: 100 µM, inhibitor.

Each structure is given as a SMILES string. Where a name gives a salt, the structure may show the parent alone.

For orientation: inhibition means the change of the read-out against control, counted positive when it falls. Consider `COCC(=O)Nc1c(I)c(C(=O)NCC(O)CO)c(I)c(C(=O)N(C)CC(O)CO)c1I` (mixture of isomers) [Iopromide], for which the inhibition at 100 µM turned out to be 0%. Turning to `CCC(C)n1ncn(-c2ccc(N3CCN(c4ccc(OC[C@H]5CO[C@](Cn6cncn6)(c6ccc(Cl)cc6Cl)O5)cc4)CC3)cc2)c1=O` (mixture of isomers) [Itraconazole], the inhibition at 100 µM was 1.14%. Take `OC[C@H]1O[C@@H](O[C@@H]2[C@@H](CO)OC(O)(CO)[C@H]2O)[C@H](O)[C@@H](O)[C@H]1O` (mixture of isomers) [Lactulose]: the inhibition at 100 µM is 5.37%. With `CCCCC(C)(O)C/C=C/[C@H]1[C@H](O)CC(=O)[C@@H]1CCCCCCC(=O)OC` (mixture of isomers) [Misoprostol], the inhibition at 100 µM amounted to 0%. With `CC(C)(C)NCC(O)COc1cccc2c1C[C@H](O)[C@H](O)C2` (mixture of isomers) [Nadolol], the inhibition at 100 µM amounted to 21.5%. Same read-out and setting: for `NCC(O)c1ccc(O)cc1` (racemic) [(+,-)-Octopamine HCl] the value was 0%; for `CN1C[C@@H]2c3ccccc3Oc3ccc(Cl)cc3[C@H]2C1` (racemic) [Asenapine maleate], 0%; for `COC(=O)C1=C(C)NC(C)=C(C(=O)O[C@@H]2CCCN(Cc3ccccc3)C2)[C@@H]1c1cccc([N+](=O)[O-])c1` (racemic) [Benidipine HCl], 4.77%. Take `C[N+](C)(C)CC(O)CC(=O)[O-]` (racemic) [DL-Carnitine HCl]: the inhibition at 100 µM was found to be 0%. Turning to `NC(=O)CCC(N)C(=O)O` (racemic) [DL-Glutamine], the inhibition at 100 µM was 0%.

Consider `CC(C)(CO)C(O)C(=O)NCCCO` (racemic) [DL-Panthenol], for which the inhibition at 100 µM worked out at 0%.

Regarding `CC(C)n1c(/C=C/[C@@H](O)C[C@@H](O)CC(=O)O)c(-c2ccc(F)cc2)c2ccccc21` (racemic) [Fluvastatin Sodium], the inhibition at 100 µM came to 30%. As usually defined, the %inhibition is the share of the control response that was lost under treatment. For `COc1ccc(C[C@@H](C)NC[C@H](O)c2ccc(O)c(NC=O)c2)cc1` (racemic) [Formoterol Hemifumarate], the “%inhibition” value turned out to be 0%. Turning to `CC(=O)N1CCN(c2ccc(OC[C@@H]3CO[C@@](Cn4ccnc4)(c4ccc(Cl)cc4Cl)O3)cc2)CC1` (racemic) [Ketoconazole], the inhibition at 100 µM was found to be 19.1%. On the same count and under the same terms, for `CCN(CC)C(=O)[C@]1(c2ccccc2)C[C@@H]1CN` (racemic) [Milnacipran HCl] the value was 0%; for `CCOc1ccccc1O[C@H](c1ccccc1)[C@H]1CNCCO1` (racemic) [Reboxetine mesylate], 0%. Turning to `C[C@@H](NCCc1ccc(O)cc1)[C@@H](O)c1ccc(O)cc1` (racemic) [Ritodrine HCl], the inhibition at 100 µM was found to be 33.2%. `CC(C)N1CCN(c2ccc(OC[C@H]3CO[C@](Cn4cncn4)(c4ccc(Cl)cc4Cl)O3)cc2)CC1` (racemic) [Terconazole]: the inhibition at 100 µM worked out at 4.88%.

For the compound `O=C(O)CCCC[C@@H]1CCSS1` (racemic) [Thioctic acid], the inhibition at 100 µM was determined as 22.2%.

As to `Cc1ccc(S(=O)(=O)NC(=O)NN2CC3CCC[C@@H]3C2)cc1` (stereo in doubt) [Gliclazide], the inhibition at 100 µM is 9.52%. `CC(=C(CCOC(=O)C(C)C)SSC(CCOC(=O)C(C)C)=C(C)N(C=O)Cc1cnc(C)nc1N)N(C=O)Cc1cnc(C)nc1N` (stereo in doubt) [Sulbutiamine]: the inhibition at 100 µM was 12.8%. As for `COc1ccc(C(=O)c2ccccc2O)c(O)c1` [2,2′-Dihydroxy-4-methoxybenzophenone], the inhibition at 100 µM stood at 8.7%.

Turning to `Nc1ccncc1` [4-Aminopyridine], the “%inhibition” value came out at 5.817%. On to `CC1(C)OC(=O)NC1=O` [5,5-Dimethyloxazolidine-2,4-dione], for which the inhibition at 100 µM worked out at 0.163%.

On to `NCC(=O)CCC(=O)O` [5-Aminolevulinic acid HCl], for which the inhibition at 100 µM came to 7.12%. Same read-out and setting: for `N[C@@H](Cc1c[nH]c2ccc(O)cc12)C(=O)O` [5-hydroxytryptophan (5-HTP)] the value was 0%; for `S=c1nc[nH]c2nc[nH]c12` [6-Mercaptopurine (6-MP) Monohydrate], 4.11%; for `Nc1c2ccccc2nc2ccccc12` [9-Aminoacridine], 0.915%. As for `CC1(C)[C@@H]2CC[C@@]1(C)C(=O)C2` [(+)-Camphor], the inhibition at 100 µM amounted to 0%. As to `C/C=C1\[C@H]2C=C(C)C[C@]1(N)c1ccc(=O)[nH]c1C2` [(-)-Huperzine A (HupA)], the inhibition at 100 µM was 0%. For the compound `CC(C)[C@@H]1CC[C@@H](C)C[C@H]1O` [(-)-Menthol], the inhibition at 100 µM amounted to 0%.

As for `CC(C)NC[C@@H](O)COc1ccc(CC(N)=O)cc1` [(R)-(+)-Atenolol HCl], the inhibition at 100 µM was determined as 9.19%.

In the case of `NC[C@H](CC(=O)O)c1ccc(Cl)cc1` [(R)-baclofen], the inhibition at 100 µM turned out to be 0%. For `C[C@H](Oc1cc(-c2cnn(C3CCNCC3)c2)cnc1N)c1c(Cl)ccc(F)c1Cl` [(S)-crizotinib], the inhibition at 100 µM was determined as 4.9%. As to `NC(=O)c1ncn([C@@H]2O[C@H](CO)[C@@H](O)[C@H]2O)c1N` [AICAR (Acadesine)], the inhibition at 100 µM was found to be 14.6%. For `Nc1nc(NC2CC2)c2ncn([C@H]3C=C[C@@H](CO)C3)c2n1` [Abacavir sulfate], the inhibition at 100 µM came out at 0%.

As for `CCN1CCN(Cc2ccc(Nc3ncc(F)c(-c4cc(F)c5nc(C)n(C(C)C)c5c4)n3)nc2)CC1` [Abemaciclib], the inhibition at 100 µM came to 4.16%. In the case of `CC#CC(=O)N1CCC[C@H]1c1nc(-c2ccc(C(=O)Nc3ccccn3)cc2)c2c(N)nccn12` [Acalabrutinib (ACP-196)], the inhibition at 100 µM worked out at 9.75%. With `CC(=O)NCCCS(=O)(=O)O` [Acamprosate Calcium], the inhibition at 100 µM turned out to be 0%. As for `C[C@H]1O[C@H](O[C@H]2[C@H](O)[C@@H](O)[C@@H](O[C@H]3[C@H](O)[C@@H](O)C(O)O[C@@H]3CO)O[C@@H]2CO)[C@H](O)[C@@H](O)[C@@H]1N[C@H]1C=C(CO)[C@@H](O)[C@H](O)[C@H]1O` (stereo partly shown) [Acarbose], the inhibition at 100 µM worked out at 16%. Regarding `CCCC(=O)Nc1ccc(OCC(O)CNC(C)C)c(C(C)=O)c1` (stereo not shown) [Acebutolol HCl], the inhibition at 100 µM is 0%. As for `O=C(O)COC(=O)Cc1ccccc1Nc1c(Cl)cccc1Cl` [Aceclofenac], the inhibition at 100 µM came to 0%.

Regarding `CC(=O)N[C@@H](CCC(N)=O)C(=O)O` [Aceglutamide], the inhibition at 100 µM worked out at 0%. Take `COc1ccc2c(c1)c(CC(=O)OCC(=O)O)c(C)n2C(=O)c1ccc(Cl)cc1` [Acemetacin]: the inhibition at 100 µM stood at 8.64%. On to `CC(=O)Nc1ccccc1` [Acetanilide], for which the inhibition at 100 µM stood at 30.4%.

On to `CC(=O)c1ccc(S(=O)(=O)NC(=O)NC2CCCCC2)cc1` [Acetohexamide], for which the inhibition at 100 µM was 17.8%. As to `CC(=O)NO` [Acetohydroxamic acid], the inhibition at 100 µM turned out to be 0%. On to `CC(=O)OCC[N+](C)(C)C` [Acetylcholine iodide], for which the inhibition at 100 µM was found to be 0%.

With `CC(=O)N[C@@H](CS)C(=O)O` [Acetylcysteine], the inhibition at 100 µM is 0%. Take `CC(=O)NC(CC(C)C)C(=O)O` (stereo not shown) [Acetylleucine]: the inhibition at 100 µM was 1.78%. On the same count and under the same terms, for `Nc1nc2c(ncn2COCCO)c(=O)[nH]1` [Aciclovir] the value was 19.8%. On to `Cc1cnc(C(=O)O)c[n+]1[O-]` [Acipimox], for which the inhibition at 100 µM was 14%. For the compound `COc1cc(C)c(/C=C/C(C)=C/C=C/C(C)=C/C(=O)O)c(C)c1C` [Acitretin], the inhibition at 100 µM amounted to 7.72%. Take `O=C(O[C@H]1C[N+]2(CCCOc3ccccc3)CCC1CC2)C(O)(c1cccs1)c1cccs1` [Aclidinium Bromide]: the inhibition at 100 µM is 0%.

Consider `COc1cc(O)c(C(=O)Nc2nc(C(=O)NCCN(C(C)C)C(C)C)cs2)cc1OC` [Acotiamide hydrochloride], for which the “%inhibition” value worked out at 0%. On the same count and under the same terms, for `COc1cc(O)c(C(=O)Nc2nc(C(=O)NCCN(C(C)C)C(C)C)cs2)cc1OC` [Acotiamide] the value was 14.33%.

On to `CC(=O)Nc1ccc(CC(=O)O)cc1` [Actarit], for which the inhibition at 100 µM turned out to be 2.1%. Regarding `COc1ccc(-c2ccc3cc(C(=O)O)ccc3c2)cc1[C@]12C[C@H]3C[C@H](C[C@H](C3)C1)C2` [Adapalene], the inhibition at 100 µM worked out at 27.7%.

With `CC(C)(C)C(=O)OCOP(=O)(COCCn1cnc2c(N)ncnc21)OCOC(=O)C(C)(C)C` [Adefovir Dipivoxil], the inhibition at 100 µM is 37.1%. Turning to `Nc1[nH]cnc2ncnc1-2` [Adenine HCl], the inhibition at 100 µM came to 9.72%. `Nc1ncnc2nc[nH]c12` [Adenine sulfate]: the inhibition at 100 µM came out at 4.13%. Regarding `Nc1ncnc2c1ncn2[C@@H]1O[C@H](CO)[C@@H](O)[C@H]1O` [Adenosine], the inhibition at 100 µM was found to be 0%. On the same count and under the same terms, for `CCN(CC)CCOC(=O)C(c1ccccc1)c1ccccc1` [Adiphenine HCl] the value was 6.54%. Take `CNCC(=O)c1ccc(O)c(O)c1` [Adrenalone HCl]: the inhibition at 100 µM amounted to 6.88%. For the compound `CN(C)C/C=C/C(=O)Nc1cc2c(Nc3ccc(F)c(Cl)c3)ncnc2cc1O[C@H]1CCOC1` [Afatinib (BIBW2992) Dimaleate], the “%inhibition” value stood at 21%. Consider `CN(C)C/C=C/C(=O)Nc1cc2c(Nc3ccc(F)c(Cl)c3)ncnc2cc1O[C@H]1CCOC1` [Afatinib (BIBW2992)], for which the “%inhibition” value came out at 0.3349%. Turning to `Cc1ccccc1-n1c(CF)nc2ccc(N)cc2c1=O` [Afloqualone], the inhibition at 100 µM worked out at 0%. The same measure, in the same setting: for `Cn1ncc(Cl)c1-c1cc(C(=O)N[C@H](CN)Cc2cccc(F)c2)sc1Cl` [Afuresertib (GSK2110183)] the value was 0%. As for `COc1ccc2cccc(CCNC(C)=O)c2c1` [Agomelatine], the inhibition at 100 µM is 36.5%.

As to `CC[C@H]1[C@@H]2C[C@H]3[C@@H]4N(C)c5ccccc5[C@]45C[C@@H]([C@H]2[C@H]5O)N3[C@@H]1O` [Ajmaline], the inhibition at 100 µM turned out to be 18.1%.

These data come from publication doi:10.1101/2021.10.07.463234v2 (biorxiv, 2021).
